Test results reported in ChEMBL document CHEMBL2203275, “Design and synthesis of novel bis-thiazolone derivatives as micromolar CDC25 phosphatase inhibitors: effect of dimerisation on phosphatase inhibition” (Bioorg Med Chem Lett, 2012).
Blank lines part the entries; values can stand above or below the molecule they belong to.

How the values were obtained:
[1] = molecular target: T1, M-phase inducer phosphatase 2 (Homo sapiens, UniProt P30305); experiment: Inhibition of MBP-fused recombinant wild type CDC25B3 using fluorescein 3,6 diphosphate as substrate measured for 30 mins in presence of 1 mM dithiothreitol
T1 sequence (P30305 whole entry): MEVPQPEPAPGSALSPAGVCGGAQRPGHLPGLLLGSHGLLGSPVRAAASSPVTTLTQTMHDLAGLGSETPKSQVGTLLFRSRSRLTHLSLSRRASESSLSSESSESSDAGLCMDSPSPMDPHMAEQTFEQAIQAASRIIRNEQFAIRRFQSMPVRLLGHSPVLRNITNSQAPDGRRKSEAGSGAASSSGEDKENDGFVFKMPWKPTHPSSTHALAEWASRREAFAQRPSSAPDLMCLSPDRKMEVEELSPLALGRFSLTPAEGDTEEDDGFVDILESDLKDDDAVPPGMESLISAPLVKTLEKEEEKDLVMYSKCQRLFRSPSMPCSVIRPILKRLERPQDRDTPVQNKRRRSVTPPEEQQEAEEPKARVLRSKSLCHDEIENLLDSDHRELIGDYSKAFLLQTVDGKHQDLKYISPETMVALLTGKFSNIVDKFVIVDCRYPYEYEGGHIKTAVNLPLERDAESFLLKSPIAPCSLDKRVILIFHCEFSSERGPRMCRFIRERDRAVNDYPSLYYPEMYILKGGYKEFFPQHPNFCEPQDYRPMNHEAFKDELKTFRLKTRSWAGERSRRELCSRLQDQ

[2] = molecular target: T2, Tyrosine-protein phosphatase non-receptor type 1 (Homo sapiens) (UniProt P18031); experiment: Inhibition of PTP1B using fluorescein 3,6 diphosphate as substrate at 100 uM measured for 1 hr in presence of 1 mM dithiothreitol
T2 sequence (whole entry): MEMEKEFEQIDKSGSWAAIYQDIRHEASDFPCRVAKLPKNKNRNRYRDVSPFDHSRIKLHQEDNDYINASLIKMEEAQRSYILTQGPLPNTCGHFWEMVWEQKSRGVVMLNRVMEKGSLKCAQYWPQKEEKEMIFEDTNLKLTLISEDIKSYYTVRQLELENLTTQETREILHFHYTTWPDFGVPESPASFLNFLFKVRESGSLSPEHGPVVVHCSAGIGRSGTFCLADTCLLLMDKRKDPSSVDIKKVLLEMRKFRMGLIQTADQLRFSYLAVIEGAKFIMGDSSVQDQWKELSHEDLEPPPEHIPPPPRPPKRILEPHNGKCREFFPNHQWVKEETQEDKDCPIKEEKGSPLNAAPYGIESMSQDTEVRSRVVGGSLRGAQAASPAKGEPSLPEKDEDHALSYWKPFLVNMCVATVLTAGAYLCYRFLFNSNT

[3] = molecular target: T3, Dual specificity protein phosphatase 3 (Homo sapiens, UniProt P51452); experiment: Inhibition of VHR using fluorescein 3,6 diphosphate as substrate at 100 uM measured for 1 hr in presence of 1 mM dithiothreitol
Target sequence in this assay (P51452 whole entry, looked up): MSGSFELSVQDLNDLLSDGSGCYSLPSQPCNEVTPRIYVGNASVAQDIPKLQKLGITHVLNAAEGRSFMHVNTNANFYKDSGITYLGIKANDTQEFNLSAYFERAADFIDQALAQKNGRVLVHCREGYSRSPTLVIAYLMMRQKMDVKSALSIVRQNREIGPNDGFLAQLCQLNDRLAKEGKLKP

[4] = molecular target: T2, Tyrosine-protein phosphatase non-receptor type 1 (Homo sapiens); experiment: Inhibition of PTP1B using fluorescein 3,6 diphosphate as substrate at 50 uM measured for 1 hr in presence of 1 mM dithiothreitol
[5] = molecular target: T4, Tyrosine-protein phosphatase non-receptor type 1 (Homo sapiens, UniProt P18031); experiment: Inhibition of PTP1B using fluorescein 3,6 diphosphate as substrate measured for 1 hr in presence of 1 mM dithiothreitol
T4 sequence (P18031 whole entry): T2 sequence (whole entry)

[6] = molecular target: T1, M-phase inducer phosphatase 2; experiment: Inhibition of MBP-fused recombinant wild type CDC25B3 using fluorescein 3,6 diphosphate as substrate measured for 30 mins in presence of 20 mM dithiothreitol
[7] = molecular target: T1, M-phase inducer phosphatase 2; experiment: Inhibition of MBP-fused recombinant wild type CDC25B3 using fluorescein 3,6 diphosphate as substrate measured for 30 mins in presence of 10 mM dithiothreitol
[8] = molecular target: T3, Dual specificity protein phosphatase 3; experiment: Inhibition of VHR using fluorescein 3,6 diphosphate as substrate at 10 uM measured for 1 hr in presence of 1 mM dithiothreitol
Target sequence in this assay (P51452 whole entry, looked up): as above

[9] = molecular target: T3, Dual specificity protein phosphatase 3; experiment: Inhibition of VHR using fluorescein 3,6 diphosphate as substrate measured for 1 hr in presence of 1 mM dithiothreitol
Target sequence in this assay (P51452 whole entry): as the sequence (P51452 whole entry, looked up) above

[10] = molecular target: T2, Tyrosine-protein phosphatase non-receptor type 1 (Homo sapiens); experiment: Inhibition of PTP1B using fluorescein 3,6 diphosphate as substrate at 10 uM measured for 1 hr in presence of 1 mM dithiothreitol
[11] = molecular target: T5, M-phase inducer phosphatase 2 (Homo sapiens) (UniProt P30305); experiment: Inhibition of MBP-fused recombinant wild type CDC25B3 using fluorescein 3,6 diphosphate as substrate at 100 uM measured for 30 mins in presence of 1 mM dithiothreitol
T5 sequence (whole entry): T1 sequence (P30305 whole entry)

Compound: O=C1N=C(NCCCCCCCNC2=NC(=O)/C(=C/C=C/c3ccccc3)S2)S/C1=C\C=C\c1ccccc1
- IC50 [1]: 7.7 µM
- inhibition [2]: 51%
- inhibition [3]: 34%

Compound: O=C1N=C(NCCCn2cc(CNC3=NC(=O)/C(=C/c4ccc(O)cc4)S3)nn2)S/C1=C\c1ccc(O)cc1
- inhibition [4]: 25%

Compound: O=C1N=C(NCCCCCCCNC2=NC(=O)/C(=C/c3ccc4c(c3)OCO4)S2)S/C1=C\c1ccc2c(c1)OCO2
- IC50 [1]: 13.8 µM
- inhibition [2]: 30%
- inhibition [3]: 27%

Compound: CC1=CC(=O)c2ccccc2C1=O [MENADIONE]
- IC50 [1]: 2.2 µM

Compound: O=C1N=C(NCCN2CCN(CCNC3=NC(=O)/C(=C/c4ccc(O)cc4)S3)CC2)S/C1=C\c1ccc(O)cc1
- IC50 [5]: 46 µM

Compound: O=C(O)/C=C/c1ccc(/C=C2\SC(NCCCCCCCNC3=NC(=O)/C(=C/c4ccc(/C=C/C(=O)O)cc4)S3)=NC2=O)cc1
- IC50 [5]: 26.9 µM

Compound: COc1cc(/C=C2\SC(NCCCCCCCNC3=NC(=O)/C(=C/c4cc(OC)c(O)c(OC)c4)S3)=NC2=O)cc(OC)c1O
- inhibition [2]: 2%

Compound: O=C1N=C(NCc2cccc(CNC3=NC(=O)/C(=C/c4ccc(O)cc4)S3)c2)S/C1=C\c1ccc(O)cc1
- IC50 [5]: 9.1 µM

Compound: O=C1N=C(NCCCCCCCNC2=NC(=O)/C(=C/c3ccc(O)c(O)c3)S2)S/C1=C\c1ccc(O)c(O)c1
- IC50 [5]: 23.4 µM

Compound: O=C1N=C(NCCCCCCCNC2=NC(=O)/C(=C/c3cc(Br)c(O)c(Br)c3)S2)S/C1=C\c1cc(Br)c(O)c(Br)c1
- IC50 [1]: 1.38 µM
- IC50 [6]: 3.2 µM
- IC50 [7]: 3.1 µM
- inhibition [3]: 100%
- IC50 [5]: 24.2 µM
- inhibition [8]: 31%

Compound: O=C1N=C(NCC2CCCC(CNC3=NC(=O)/C(=C/c4ccc(O)cc4)S3)C2)S/C1=C\c1ccc(O)cc1 (stereo not drawn)
- IC50 [1]: 6.6 µM
- inhibition [3]: 30%
- IC50 [5]: 9 µM

Compound: O=C1N=C(NCCCCCCCCCNC2=NC(=O)/C(=C/c3ccc(O)cc3)S2)S/C1=C\c1ccc(O)cc1
- IC50 [5]: 6.2 µM

Compound: O=C1N=C(NCCCc2cn(CCNC3=NC(=O)/C(=C/c4ccc(O)cc4)S3)nn2)S/C1=C\c1ccc(O)cc1
- inhibition [4]: 35%

Compound: O=C1N=C(NCCN2CCN(CCNC3=NC(=O)/C(=C/c4ccc(O)cc4)S3)CC2)S/C1=C\C=C\c1ccco1
- inhibition [2]: 39%

Compound: O=C1N=C(NCCCc2cn(CCCNC3=NC(=O)/C(=C/c4ccc(O)cc4)S3)nn2)S/C1=C\c1ccc(O)cc1
- inhibition [4]: 50%

Compound: O=C1N=C(NCCN2CCN(CCNC3=NC(=O)/C(=C/c4cc(Br)c(O)c(Br)c4)S3)CC2)S/C1=C\c1ccc(O)cc1
- inhibition [2]: 100%
- inhibition [10]: 33%

Compound: O=C1N=C(NCCCCCCCNC2=NC(=O)/C(=C/c3ccccc3)S2)S/C1=C\c1ccccc1
- IC50 [5]: 41.3 µM

Compound: O=C1N=C(NCCN2CCN(CCNC3=NC(=O)/C(=C/c4ccc5[nH]ncc5c4)S3)CC2)S/C1=C\c1ccc(O)cc1
- inhibition [2]: 18%

Compound: O=C1N=C(NCCCCCCCNC2=NC(=O)/C(=C/c3ccc(-c4ccccc4)o3)S2)S/C1=C\c1ccc(-c2ccccc2)o1
- inhibition [2]: 50%

Compound: O=C1N=C(NCCN2CCN(CCNC3=NC(=O)/C(=C/c4ccc5c(c4)OCO5)S3)CC2)S/C1=C\c1ccc(O)cc1
- IC50 [1]: 4.4 µM
- inhibition [2]: 19%
- inhibition [3]: 29%

Compound: O=C1N=C(NCCCn2cc(CCNC3=NC(=O)/C(=C/c4ccc(O)cc4)S3)nn2)S/C1=C\c1ccc(O)cc1
- IC50 [1]: 20.6 µM
- inhibition [4]: 20%
- inhibition [3]: 55%

Compound: O=C1N=C(NCCN2CCN(CCNC3=NC(=O)/C(=C/c4ccc(O)cc4)S3)CC2)S/C1=C\C=C\c1ccccc1
- inhibition [2]: 13%

Now from value to molecule:

- inhibition [2]: 32%
Compound: CNC1=NC(=O)/C(=C/c2ccc(O)cc2)S1

- IC50 [5]: 30.6 µM
Compound: O=C1N=C(NCCCCCCCNC2=NC(=O)/C(=C/c3ccc(O)cc3)S2)S/C1=C\c1ccc(O)cc1

- IC50 [1]: 13.9 µM
- IC50 [9]: 75.8 µM
- IC50 [5]: 20.6 µM
Compound: O=C1N=C(NCCCCCNC2=NC(=O)/C(=C/c3ccc(O)cc3)S2)S/C1=C\c1ccc(O)cc1

- IC50 [5]: 28.4 µM
Compound: O=C1N=C(NCCCCNC2=NC(=O)/C(=C/c3ccc(O)cc3)S2)S/C1=C\c1ccc(O)cc1

- IC50 [1]: 3.9 µM
- inhibition [3]: 29%
- IC50 [5]: 11.6 µM
Compound: O=C1N=C(NCCCCCCCCNC2=NC(=O)/C(=C/c3ccc(O)cc3)S2)S/C1=C\c1ccc(O)cc1

- inhibition [2]: 35%
Compound: CCCCNC1=NC(=O)/C(=C/c2ccc(O)cc2)S1

- inhibition [2]: 46%
- inhibition [3]: 8%
- inhibition [11]: 45%
Compound: O=C1N=C(NCc2ccccc2)S/C1=C\c1ccc(O)cc1

- IC50 [5]: 12.4 µM
Compound: O=C1N=C(NCCCCCCNC2=NC(=O)/C(=C/c3ccc(O)cc3)S2)S/C1=C\c1ccc(O)cc1

- inhibition [2]: 35%
Compound: CCCCCNC1=NC(=O)/C(=C/c2ccc(O)cc2)S1
